Reference: patent US4877790A, “Quinazoline derivative, processes for its production, and cerebral dysfunction remedying agent comprising it as active ingredient” (Kanebo Limited, priority 1987, dated 1989)
Structures can show the parent of a compound that is named as a salt.

Assays:
[1] = system: deficit of memory induced by scopolamine hydrobromide, male mice of the ddY strain; assay: Anti-scopolamine-induced amnesia activity (one-trial passive avoidance response); type: in vivo; conditions: i.p. and p.o., Table 5
Protocol: Anti-scopolamine-induced amnesia activity:
Male mice of the ddY strain (body weight 20-25g, 20 per group) were used, and the activity of the test compound on deficit of memory induced by scopolamine hydrobromide (a muscarinic acetylcholine receptor antagonist) was examined using one-trial passive avoidance response as an index.
Using the same experimental device as in Test Example 1, the same acquisition trial and retrieval trial as in Test Example 1 were carried out (one-trial passive avoidance response.)
Scopolamine hydrobromide (1 mg/kg) was intraperitoneally (i.p.) administered to the animals 20 minutes before the acquisition trial. The compound of the invention (dihydrochloride) was dissolved in 1 % gum arabic solution, and intraperitoneally adminstered immediately after the acquisition trial, and orally (p.o.) administered 60 minutes before the acquisition trial.
A 1% solution of gum arabic was administered to the control group.

[2] = system: carbon dioxide-induced amnesia, male mice of the ddY strain; assay: Anti-CO2-induced amnesia activity (one-trial passive avoidance response); type: in vivo; conditions: oral, Table 1
Protocol: Anti-CO2 -induced amnesia activity (the activity of remedying hypoxia-induced deficits in learning and memory):
Male mice of the ddY strain (body weight 20-30 g, 30 per group) were used. Anti-CO2 -induced amnesia activity was determined by using one-trial passive avoidance response as an index.
The experimental device consisted of two compartments, one illuminated and the other dark, with a guillotine door in the boundary of the two compartments permitting free passage of the mice through it.
In an acquisition trial, a mouse was placed in the illuminated compartment and allowed to enter the dark one. As soon as the mouse entered the dark compartment, the door was shut, and an electrical shock (0.5 mA, 0.2 sec.) was applied through the grid floor. Thus, the mouse was caused to learn that it receives an electric shock upon entering the dark room. In a retrieval trial, the mouse was again placed in the illuminated compartment 24 hours after the acquisition trial, and the time elapsed until it entered the dark compartment (response latency) was measured to an extent of 300 seconds at the longest. (One-trial passive avoidance response). […]

[3] = system: formation of lipid peroxide by autoxidation (brain homogenate); assay: Lipid peroxide formation inhibiting activity (antioxidant activity), MDA in brain homogenate; type: biochemical, rats; conditions: for Antioxidant activity (percent inhibition of autoxidation): 37° C. 30 minutes, n = 4, mean ± standard error
Protocol: Lipid peroxide formation inhibiting activity (antioxidant activity):
The effect of the test compound on the formation of lipid peroxide by autoxidation was determined by the amount of malondialdehyde (MDA) formed.
Rats were decapitated, and the cerebrum was taken out and homogenized with 4 ml, per gram of the cerebrum, of 50 mM phosphate saline-buffer (pH 7.4) and centrifuged (2800 rpm, 10 minutes). The supernatant was taken into a 10 ml test tube to obtain a brain homogenate. It was frozen at -70° C. and stored.
The brain homogenate was defrozen, and immediately then, diluted to 10-fold with the aforesaid phosphate saline-buffer. A 2 ml portion of the dilution was taken into a 10 ml test tube cooled with ice, and used to measure its antioxidant activity. Twenty microliters of an aqueous solution of the compound of this invention (dihydrochloride) was added. The amount of MDA immediately after the addition was measured as shown below (MDA0 time). The mixture was incubated at 37° C. for 30 minutes. […] After cooling with ice, the cooled mixture was centrifuged (2800 rpm, 10 minutes). To 1 ml of the supernatant, 0.5 ml of 0.5 % thiobarbituric acid solution dissolved in 50% acetic acid solution was added, and the mixture was heated at 100° C. for 15 minutes. After cooling with ice, the absorbance of the solution at 532 nm was measured, and the amount of MDA formed was determined (MDA test).
As a control, the amount of MDA (MDAcont) was determined as above.
The antioxidant activity of the compound of the invention was expressed in terms of percent inhibition of autoxidation on the brain homogenate. The calculation was based on the following equation. [formula]

[4] = system: complete ischemia by decapitation, male mice of the ddY strain; assay: Anti-hypoxic activity: brain protection against complete ischemia by decapitation (gasping persistent time); type: in vivo; conditions: oral, Table 2
Protocol: (1) Brain protection against complete ischemia by decapitation:
Male mice of the ddY strain (body weight 20-25 g, 5 per group) were orally given the compound of the invention (dihydrochloride) dissolved in 1% gum arabic solution. One hour later, the mice were decapitated, and the time elapsed until a gasping-like mouth opening movement appearing after decapitation ceased (gasping persistent time) was measured, and compared with that obtained with the control group (the group to which 1% gum arabic solution was administered.

[5] = system: normobaric hypoxia, male mice of the ddY strain; assay: Anti-hypoxic activity: brain protection against normobaric hypoxia (survival time); type: in vivo; conditions: oral, Table 3
Protocol: (2) Brain protection against normobaric hydpoxia
Male mice of the ddY strain (body weight 20-25g, 5 per group) were orally administered with the compound of the invention (dihydrochloride) dissolved in a 1% gum arabic solution. One hour after the adminstration, the mouse was put in a transparent plastic container (capacity 27 liters) through which 100% nitrogen was passed at a rate of 80 liters/min. The time elasped until the animal died (the survival time) was measured, and compared with that obtained with the control group (the group to which 1% gum arabic solution was administered).

`C=CCN1CCN(c2nc(OCCCCC)c3ccccc3n2)CC1` [Compound of the invention (2HCl), 2-(4-allyl-l-piperazinyl)-4-pentyloxyquinazoline dihydrochloride] was tested, and the “anti-scopolamine-induced amnesia activity (in words)” value [1] was “showed a significant anti-scopolamine-induced amnesia activity”, the “anti-carbon dioxide induced amnesia activity (in words)” value [2] was “showed a significant anti-carbon dioxide induced amnesia activity” and the “Antioxidant activity (percent inhibition of autoxidation)” value ([3]; 10 μM) was 6.4 ± 7.7%. For the same molecule, the “Antioxidant activity (percent inhibition of autoxidation)” value ([3]; 30 μM) was 27.1 ± 6.8%, the “Antioxidant activity (percent inhibition of autoxidation)” value ([3]; 100 μM) was 77.9 ± 3.1% and the “Antioxidant activity (percent inhibition of autoxidation)” value ([3]; 300 μM) was 93.4 ± 2.2%. The “activity of inhibiting formation of lipid peroxide (antioxidant activity) (in words)” value ([3]; Table 4) was “showed the activity of inhibiting formation of lipid peroxide”, the “activity of prolonging the gasping persistent time (in words)” value [4] was “showed a significant activity of prolonging the gasping persistent time” and the “activity of prolonging the survival time (in words)” value [5] was “showed a significant activity of prolonging the survival time”.
